Assay results: ChEMBL document CHEMBL3885881, “DrugMatrix”

Species on record: Rattus norvegicus
Assay: DrugMatrix - Regimen: Daily Repeat
Type: toxicity, organism-based, Sprague-Dawley
Design: regimen Daily Repeat, gender Male, age 6-8 weeks
Settings: in vivo, po, route oral GAVAGE, vehicle .5 % CMC; for BASOPHIL / EOSINOPHIL / ERYTHROCYTE COUNT / HEMATOCRIT / HEMOGLOBIN / LEUKOCYTE COUNT / LYMPHOCYTE / MEAN CORPUSCULAR HEMOGLOBIN / MEAN CORPUSCULAR HEMOGLOBIN CONCENTRATION / MEAN CORPUSCULAR VOLUME / MONOCYTE / NEUTROPHIL / PLATELET COUNT: tissue Blood; for ALANINE AMINOTRANSFERASE / ALBUMIN / ALKALINE PHOSPHATASE / ASPARTATE AMINOTRANSFERASE / BLOOD UREA NITROGEN / CHLORIDE / CHOLESTEROL / CREATINE PHOSPHOKINASE / CREATININE / GLUCOSE / PHOSPHORUS / POTASSIUM / SODIUM / TOTAL BILIRUBIN / TOTAL PROTEIN: tissue Plasma
[1] = 50 mg/kg, 120 h, dose level Low, time 5 day
[2] = 1000 mg/kg, 72 h, dose level High, time 3 day
[3] = 1000 mg/kg, 120 h, dose level High, time 5 day

In the case of CC(C)NCC(O)COc1ccc(CC(N)=O)cc1 (centres undefined) [ATENOLOL], the BASOPHIL [1] is reported as 0%, the EOSINOPHIL [1] is reported as 0% and the “ERYTHROCYTE COUNT” value [1] is reported as 5.99 x10E6/uL. For the same molecule, the HEMATOCRIT [1] was 36.17%, the HEMOGLOBIN [1] was 14.4 G/DL and the “LEUKOCYTE COUNT” value [1] was 11.97 x10E3/uL. For the same molecule, the LYMPHOCYTE [1] was 88%, the “MEAN CORPUSCULAR HEMOGLOBIN” value [1] was 24.03 pg and the “MEAN CORPUSCULAR HEMOGLOBIN CONCENTRATION” value [1] was 39.8 G/DL. For the same molecule, the “MEAN CORPUSCULAR VOLUME” value [1] was 60.4 fL, the MONOCYTE [1] was 1.67% and the NEUTROPHIL [1] was 10.33%. The “PLATELET COUNT” value [1] was 1118 x10E3/uL, the “ALANINE AMINOTRANSFERASE” value [1] was 39.67 u/L and the ALBUMIN [1] was 3.6 G/DL. For the same molecule, the “ALKALINE PHOSPHATASE” value [1] was 354.33 u/L, the “ASPARTATE AMINOTRANSFERASE” value [1] was 60.33 u/L and the “BLOOD UREA NITROGEN” value [1] was 14 mg/dL. The CHLORIDE [1] was 104.67 MEQ/L, the CHOLESTEROL [1] was 72 mg/dL and the “CREATINE PHOSPHOKINASE” value [1] was 115 u/L. It also gave a CREATININE [1] of 0.53 mg/dL, a GLUCOSE [1] of 172.33 mg/dL and a PHOSPHORUS [1] of 10.87 mg/dL. The POTASSIUM [1] was 6.93 MEQ/L, the SODIUM [1] was 150.33 MEQ/L and the “TOTAL BILIRUBIN” value [1] was 0.3 mg/dL. The “TOTAL PROTEIN” value [1] was 5.93 G/DL, the BASOPHIL [2] was 0% and the EOSINOPHIL [2] was 0.67%. For the same molecule, the “ERYTHROCYTE COUNT” value [2] was 5.98 x10E6/uL, the HEMATOCRIT [2] was 36.83% and the HEMOGLOBIN [2] was 14.37 G/DL. For the same molecule, the “LEUKOCYTE COUNT” value [2] was 10.2 x10E3/uL, the LYMPHOCYTE [2] was 87.33% and the “MEAN CORPUSCULAR HEMOGLOBIN” value [2] was 24.07 pg. The “MEAN CORPUSCULAR HEMOGLOBIN CONCENTRATION” value [2] was 39.03 G/DL, the “MEAN CORPUSCULAR VOLUME” value [2] was 61.67 fL and the MONOCYTE [2] was 0.67%. The NEUTROPHIL [2] was 11.33%, the “PLATELET COUNT” value [2] was 1408.33 x10E3/uL and the “ALANINE AMINOTRANSFERASE” value [2] was 45.67 u/L. The ALBUMIN [2] was 3.63 G/DL, the “ALKALINE PHOSPHATASE” value [2] was 339 u/L and the “ASPARTATE AMINOTRANSFERASE” value [2] was 60.67 u/L. For the same molecule, the “BLOOD UREA NITROGEN” value [2] was 14 mg/dL, the CHLORIDE [2] was 107 MEQ/L and the CHOLESTEROL [2] was 70 mg/dL. The “CREATINE PHOSPHOKINASE” value [2] was 137.33 u/L, the CREATININE [2] was 0.5 mg/dL and the GLUCOSE [2] was 170.33 mg/dL. The PHOSPHORUS [2] was 10.57 mg/dL, the POTASSIUM [2] was 6.17 MEQ/L and the SODIUM [2] was 151.33 MEQ/L. For the same molecule, the “TOTAL BILIRUBIN” value [2] was 0.3 mg/dL, the “TOTAL PROTEIN” value [2] was 6 G/DL and the BASOPHIL [3] was 0%. The EOSINOPHIL [3] was 0%, the “ERYTHROCYTE COUNT” value [3] was 7.06 x10E6/uL and the HEMATOCRIT [3] was 43.27%. The HEMOGLOBIN [3] was 16.87 G/DL, the “LEUKOCYTE COUNT” value [3] was 15.07 x10E3/uL and the LYMPHOCYTE [3] was 82%. The “MEAN CORPUSCULAR HEMOGLOBIN” value [3] was 24 pg, the “MEAN CORPUSCULAR HEMOGLOBIN CONCENTRATION” value [3] was 39.07 G/DL and the “MEAN CORPUSCULAR VOLUME” value [3] was 61.43 fL. For the same molecule, the MONOCYTE [3] was 2.67%, the NEUTROPHIL [3] was 15.33% and the “PLATELET COUNT” value [3] was 1202 x10E3/uL. The “ALANINE AMINOTRANSFERASE” value [3] was 39.67 u/L, the ALBUMIN [3] was 3.77 G/DL and the “ALKALINE PHOSPHATASE” value [3] was 265.33 u/L. For the same molecule, the “ASPARTATE AMINOTRANSFERASE” value [3] was 77 u/L, the “BLOOD UREA NITROGEN” value [3] was 20 mg/dL and the CHLORIDE [3] was 111.33 MEQ/L. For the same molecule, the CHOLESTEROL [3] was 76.33 mg/dL, the “CREATINE PHOSPHOKINASE” value [3] was 139.33 u/L and the CREATININE [3] was 0.6 mg/dL. It also gave a GLUCOSE [3] of 166 mg/dL, a PHOSPHORUS [3] of 11.47 mg/dL and a POTASSIUM [3] of 7 MEQ/L. The SODIUM [3] was 158.33 MEQ/L, the “TOTAL BILIRUBIN” value [3] was 0.27 mg/dL and the “TOTAL PROTEIN” value [3] was 6.3 G/DL.
